Data taken from patent US10953027B2, “Active agents and methods of their use for the treatment of metabolic disorders and nonalcoholic fatty liver disease” (Flagship Pioneering Innovations V, Inc., priority 2018, dated 2021).

How the values were obtained:
[1] = Assay 1. Stability in Simulated Gastric Fluid (SGF); format: in vitro ADME; conditions: 1 μM, 37° C., SGF pH 1.6 with pepsin
In short: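 Simulated gastric fluid, prepared fresh as NaCl buffer at pH 1.6 with 0.1 mg/mL pepsin and FaSSIF powder, received test compound to 1 μM final and was held at 37 °C. LC/MS of acetonitrile-quenched samples, taken immediately and then periodically, gave degradation rates.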

Male DIO mice = assay: In vivo evaluation for glucose disposal and lipidemia in DIO mice (Example 11); conditions: for change in body weight from baseline: 30 days; for Cholesterol / HDL / LDL / NEFA / Triglycerides: terminal (fed) serum; for Fasting blood glucose levels (time 0 from OGTT): 28 days, 16 hour fast; for glucose AUC (0-120 min): OGTT day 28, glucose 2.0 g/kg PO
Description: The DIO mice were prepared by feeding male C57BL/6 mice a high fat diet (HFD, Research Diets D12492) from 6-14 weeks of age. DIO mice were housed individually and maintained on the HFD through the duration of study. A twelve-hour light cycle was maintained with room temperature maintained at 22-25° C. All of the mice were acclimated to the facility for 5 days prior to starting the study.
Following 5 days of facility acclimation, DIO mice were randomized into 8 groups of 10 based on body weight and blood glucose for assignment to treatment, as shown in Table 9:
All treatments were administered admixed in HFD (Research Diets, New Brunswick N.J.) and were provided ad libitum for 30 days. Drinking water for group 7 was supplemented with 1, 3 Butanediol at 3% concentration.
Body weight was recorded at baseline and twice weekly thereafter. Feed and water intakes were recorded each Monday, Wednesday, and Friday.
Blood samples (<3 μL) were obtained one hour post dose by tail clip at baseline and weekly thereafter for measurement of fed blood glucose by StatStrip. Additional anti-coagulated blood samples (100 μl, EDTA di-potassium salt) were obtained by tail clip one hour post-dose at baseline, day 14 and day 30. Anti-coagulated samples were quick frozen and stored on dry ice.
Animals were subjected to a 16 hour fast for performance of an oral glucose tolerance test (OGTT) on day 28. Blood samples were obtained via tail clip just prior to (8 am) and 15, 30, 60, 90, and 120 minutes post-glucose load (2.0 g/kg, PO) for assay of whole blood glucose (StatStrip). Feed was returned following last sample.
Animals were terminated on day 30-31 using CO2 inhalation and induction of pneumothorax. Terminal blood samples were obtained by cardiac puncture. Whole blood was processed to serum and analyzed for serum cholesterol, triglycerides, high density lipoprotein (HDL), low density lipoprotein (LDL) and non-esterified fatty acids (NEFA) using AU480 clinical analyzer.
Organ weights (liver, spleen, subcutaneous fat, inguinal fat, abdominal fat, and epididymal fat) were recorded. Sections of each fat were frozen or fixed in 4% paraformaldehyde/PBS, pH 6.9; Fat samples were placed on dry ice. Fixed liver samples (4% paraformaldehyde) were sent to Premier Laboratories for H&E staining and scoring for steatosis, inflammation and fibrosis. Spleen samples were prepared in ice cold 5% bovine serum albumin (BSA) in PBS or 4% paraformaldehyde. Sections of brain, heart, lung, and small and large intestine were fixed in 10% formalin.
All data are represented as group mean±SEM. Data were analyzed using JMP (SAS software). All normalizations were calculated using terminal body weight.
Baseline differences among groups were identified using Tukey-Kramer Hsd<0.05. Treatment effects compared to control were determined using Oneway ANOVA (*, p<0.05) followed by Dunnett's test where appropriate.

With `CC(=O)Oc1cc(OC(C)=O)c2c(c1)O[C@H](c1cc(OC(C)=O)c(OC(C)=O)c(OC(C)=O)c1)[C@H](OC(=O)c1cc(OC(C)=O)c(OC(C)=O)c(OC(C)=O)c1)C2` [Compound 4, [(2R,3R)-5,7-diacetoxy-2-(3,4,5-triacetoxyphenyl)chroman-3-yl] 3,4,5-triacetoxybenzoate] the “Assay 1 (SGF) (% Remaining @ 1 hours)” value [1] was “C (C: >75% of the tested compound remaining)”, the “Abdominal fat (% BW)” value (Male DIO mice; 0.6% in HFD) was 2.1 ± 0.2 % BW and the “Blood glucose (fed) change compared to baseline” value (from here on “Blood glucose (fed) change”) (Male DIO mice; 0.6% in HFD) was −15.6±3.1%. For the same molecule, the “Epididymal fat (% BW)” value (Male DIO mice; 0.6% in HFD) was 4.7 ± 0.2 % BW, the “Inguinal fat (% BW)” value (Male DIO mice; 0.6% in HFD) was 0.99 ± 0.17 % BW and the “Subcutaneous fat (% BW)” value (Male DIO mice; 0.6% in HFD) was 4.9 ± 0.4 % BW. The “change in body weight from baseline” value (Male DIO mice; 0.6% in HFD) was 13.5±2.0%, the “Abdominal fat (% BW)” value (Male DIO mice; 2% in HFD) was 2.4 ± 0.1 % BW and the “Blood glucose (fed) change” value (Male DIO mice; 2% in HFD) was −9.0±3.9%. The “Epididymal fat (% BW)” value (Male DIO mice; 2% in HFD) was 4.5 ± 0.2 % BW, the “Inguinal fat (% BW)” value (Male DIO mice; 2% in HFD) was 0.93 ± 0.08 % BW and the “Subcutaneous fat (% BW)” value (Male DIO mice; 2% in HFD) was 5.5 ± 0.5 % BW. For the same molecule, the “change in body weight from baseline” value (Male DIO mice; 2% in HFD) was 16.4±1.1%, the “Abdominal fat (% BW)” value (Male DIO mice; 6% in HFD) was 2.2 ± 0.1 % BW and the “Blood glucose (fed) change” value (Male DIO mice; 6% in HFD) was −4.3±3.0%. The “Epididymal fat (% BW)” value (Male DIO mice; 6% in HFD) was 4.7 ± 0.3 % BW, the “Inguinal fat (% BW)” value (Male DIO mice; 6% in HFD) was 0.95 ± 0.08 % BW and the “Subcutaneous fat (% BW)” value (Male DIO mice; 6% in HFD) was 5.0 ± 0.6 % BW. The “change in body weight from baseline” value (Male DIO mice; 6% in HFD) was 15.7±1.0%, the Cholesterol (Male DIO mice; 0.6% in HFD) was 193.9 ± 11.0 mg/dL and the HDL (Male DIO mice; 0.6% in HFD) was 94.4 ± 4.0 mg/dL. For the same molecule, the LDL (Male DIO mice; 0.6% in HFD) was 9.2 ± 0.9 mg/dL, the NEFA (Male DIO mice; 0.6% in HFD) was 1.2 ± 0.04 mEq/L and the Triglycerides (Male DIO mice; 0.6% in HFD) was 97.7 ± 10.1 mg/dL. The Cholesterol (Male DIO mice; 2% in HFD) was 208.2 ± 7.2 mg/dL, the HDL (Male DIO mice; 2% in HFD) was 99.0 ± 3.6 mg/dL and the LDL (Male DIO mice; 2% in HFD) was 10.7 ± 0.9 mg/dL. It also gave an NEFA (Male DIO mice; 2% in HFD) of 1.2 ± 0.06 mEq/L, a Triglycerides (Male DIO mice; 2% in HFD) of 91.1 ± 8.4 mg/dL and a Cholesterol (Male DIO mice; 6% in HFD) of 200.4 ± 14.2 mg/dL. For the same molecule, the HDL (Male DIO mice; 6% in HFD) was 91.5 ± 5.1 mg/dL, the LDL (Male DIO mice; 6% in HFD) was 12.3 ± 0.9 mg/dL and the NEFA (Male DIO mice; 6% in HFD) was 1.1 ± 0.04 mEq/L. It also gave a Triglycerides (Male DIO mice; 6% in HFD) of 89.9 ± 5.7 mg/dL.
With `CC(=O)Oc1cc(OC(C)=O)c2c(=O)c(OC(C)=O)c(-c3ccc(OC(C)=O)c(OC(C)=O)c3)oc2c1` [Compound 14, [2-acetoxy-4-(3,5,7-triacetoxy-4-oxo-chromen-2-yl)phenyl] acetate] the “Assay 1 (SGF) (% Remaining @ 1 hours)” value [1] was “C (C: >75% of the tested compound remaining)”, the “Abdominal fat (% BW)” value (Male DIO mice; 6% in HFD) was “*0.98 ± 0.2 % BW” and the “Blood glucose (fed) change” value (Male DIO mice; 6% in HFD) was −23.1±4.9%. For the same molecule, the “Epididymal fat (% BW)” value (Male DIO mice; 6% in HFD) was “*2.6 ± 0.3 % BW”, the “Inguinal fat (% BW)” value (Male DIO mice; 6% in HFD) was “*0.40 ± 0.06 % BW” and the “Subcutaneous fat (% BW)” value (Male DIO mice; 6% in HFD) was “*2.2 ± 0.4 % BW”. The “Fasting blood glucose levels (time 0 from OGTT)” value (Male DIO mice; 6% in HFD) was 63.1 ± 1.9 mg/dL, the “change in body weight from baseline” value (Male DIO mice; 6% in HFD) was −11.9±1.3% and the “glucose AUC (0-120 min)” value (Male DIO mice; 6% in HFD) was 25720.5 ± 895.5 mg/dL/min. The Cholesterol (Male DIO mice; 6% in HFD) was “*121.5 ± 9.4 mg/dL”, the HDL (Male DIO mice; 6% in HFD) was 79.4 ± 4.0 mg/dL and the LDL (Male DIO mice; 6% in HFD) was “*4.9 ± 0.4 mg/dL”. For the same molecule, the NEFA (Male DIO mice; 6% in HFD) was “*0.69 ± 0.03 mEq/L” and the Triglycerides (Male DIO mice; 6% in HFD) was “*64.0 ± 2.8 mg/dL”.
With `CC(=O)O[C@H]1OC[C@H](OC(C)=O)[C@H](OC(C)=O)[C@H]1OC(C)=O` [Compound 53, (2R,3R,4S,5S)-tetrahydro-2H-pyran-2,3,4,5-tetrayl Tetraacetate] the “Assay 1 (SGF) (% Remaining @ 1 hours)” value [1] was “C (C: >75% of the tested compound remaining)”, the “Abdominal fat (% BW)” value (Male DIO mice; 5% in HFD) was “*1.9 ± 0.2 % BW” and the “Blood glucose (fed) change” value (Male DIO mice; 5% in HFD) was −12.5±2.2%. The “Epididymal fat (% BW)” value (Male DIO mice; 5% in HFD) was 4.1 ± 0.4 % BW, the “Inguinal fat (% BW)” value (Male DIO mice; 5% in HFD) was 0.84 ± 0.11 % BW and the “Subcutaneous fat (% BW)” value (Male DIO mice; 5% in HFD) was 4.0 ± 0.6 % BW. The “Fasting blood glucose levels (time 0 from OGTT)” value (Male DIO mice; 5% in HFD) was 90.8 ± 5.7 mg/dL, the “change in body weight from baseline” value (Male DIO mice; 5% in HFD) was −1.8±3.2% and the “glucose AUC (0-120 min)” value (Male DIO mice; 5% in HFD) was 30151.5 ± 1680 mg/dL/min. The Cholesterol (Male DIO mice; 5% in HFD) was 163.3 ± 10.3 mg/dL, the HDL (Male DIO mice; 5% in HFD) was 88.9 ± 2.7 mg/dL and the LDL (Male DIO mice; 5% in HFD) was “*6.5 ± 0.7 mg/dL”. For the same molecule, the NEFA (Male DIO mice; 5% in HFD) was “*0.98 ± 0.05 mEq/L” and the Triglycerides (Male DIO mice; 5% in HFD) was 84.8 ± 5.5 mg/dL.
